According to patent US20260138958A1, “SUBSTITUTED N-PHENYLURACILS AND SALTS THEREOF, AND USE THEREOF AS HERBICIDAL ACTIVE SUBSTANCES” (Bayer Aktiengesellschaft, priority 2022, published 2026):

Legend:
Assay type in all cases: in vivo
[1] = system: Abutilon theophrasti (ABUTH); assay: Post-emergence herbicidal action, greenhouse pot test
Procedure, shortened: (§1)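 Weeds grown in sandy loam under controlled greenhouse conditions were sprayed at the one-leaf stage, 2 to 3 weeks after sowing, with WP or EC formulations as aqueous suspension or emulsion plus 0.5% additive at 600 l/ha water. Damage was scored visually after about 3 weeks versus untreated controls (0% = like control, 100% = dead).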

[2] = system: Alopecurus myosuroides (ALOMY); assay: as above
Procedure, shortened: as §1

[3] = system: Amaranthus retroflexus (AMARE); assay: as above
Procedure, shortened: as §1

[4] = system: Digitaria sanguinalis (DIGSA); assay: as above
Procedure, shortened: as §1

[5] = system: Echinochloa crus-galli (ECHCG); assay: as above
Procedure, shortened: as §1

[6] = system: Pharbitis purpurea (PHBPU); assay: as above
Procedure, shortened: as §1

[7] = system: Polygonum convolvulus (POLCO); assay: as above
Procedure, shortened: as §1

Setaria viridis (SETVI) = assay: as above
Procedure, shortened: as §1

[8] = system: Tripleurospermum inodorum (MATIN); assay: as above; settings: 20 g/ha
Procedure, shortened: as §1

Veronica persica (VERPE) = assay: as above
Procedure, shortened: as §1

Viola tricolor (VIOTR) = assay: as above
Procedure, shortened: as §1

Oryza sativa (ORYSA) = assay: Post-emergence crop plant compatibility, greenhouse pot test; settings: Oryza sativa, in vivo
Procedure, shortened: (§2)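 Visual % damage scores were taken roughly 3 weeks after treatment, relative to untreated plants, where 100% means plants died and 0% means no difference. Plants received aqueous sprays (WP or EC, 0.5% additive, 600 l/ha) on green parts at the one-leaf stage, 2–3 weeks after sowing.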

[9] = system: Triticum aestivum (TRZAS); assay: as above
Procedure, shortened: as §2

Zea mays (ZEAMX) = assay: as above; settings: Zea mays, in vivo
Procedure, shortened: as §2

Avena fatura (AVEFA) = assay: Comparative post-emergence herbicidal action, greenhouse pot test; settings: Table B3 comparison, application rate 20 g/ha
Description: (§3) Seeds of monocotyledonous and dicotyledonous weeds and crop plants were placed in sandy loam in plastic or wood-fibre pots, covered with soil and cultivated in a greenhouse under controlled growth conditions. 2 to 3 weeks after sowing, the test plants were treated at the one-leaf stage. The compounds of the invention, formulated in the form of wettable powders (WP) or as emulsion concentrates (EC), were then sprayed onto the green parts of the plants as aqueous suspension or emulsion with addition of 0.5% additive at a water application rate of 600 l/ha (converted). After the test plants had been kept in the greenhouse under optimum growth conditions for about 3 weeks, the activity of the preparations was rated visually in comparison to untreated controls. For example, 100% activity=the plants have died, 0% activity=like control plants.
Tables B1-B5 below show the effects of inventive compounds (I.7-12, I.7-14, I.7-16) that have been obtained by the test method specified above on various harmful plants at an application rate corresponding to 20 g/ha or lower by comparison with structurally similar compounds known from the literature (“a-27”, “a-29”, disclosed in WO2002/098227).

harmful plants = assay: Post-emergence herbicidal action, summary statements over several weeds; settings: 20 g or less per hectare, ALOMY, ECHCG, AVEFA, VERPE
Description: as §3

crop plants = assay: Post-emergence crop plant compatibility, summary statements over several crops; settings: 5 g or less per hectare, ORYSA, ZEAMX, TRZAS
Description: as §3
The observed effects on selected crop plants are reported here in comparison to the untreated controls (values in %).

Bassia scoparia (KCHSC) = assay: Post-emergence herbicidal action, greenhouse pot test
Procedure, shortened: as §1

Lolium rigidum (LOLRI) = assay: as above
Procedure, shortened: as §1

Glycine max (GLXMA) = assay: Post-emergence crop plant compatibility, greenhouse pot test; settings: crop plant, post-emergence, 1.25 g/ha
Procedure, shortened: as §2

Compound: Cn1c(C(F)(F)F)cc(=O)n(-c2cc(Oc3ccccc3OCC(=O)OCC3CCCC3)c(Cl)cc2F)c1=O [I.7-12]
- Post-emergence effect at 1.25 g/ha against ABUTH in % [1]: 90%
- pest or weed control at 5 g/ha ([1]; Abutilon theophrasti, 504 h, 5 g/ha, read-out: Post-emergence effect at 5 g/ha against ABUTH in %): 100%
- pest or weed control at 20 g/ha ([1]; Abutilon theophrasti, 504 h, 20 g/ha, read-out: Post-emergence effect at 20 g/ha against ABUTH in %): 100%
- pest or weed control at 20 g/ha ([2]; Alopecurus myosuroides, 504 h, 20 g/ha, read-out: Post-emergence effect at 20 g/ha against ALOMY in %): 100%
- ALOMY (efficacy in %) ([2]; Table B1 comparison, application rate 20 g/ha): 100%
- pest or weed control at 1.25 g/ha ([3]; Amaranthus retroflexus, 504 h, 1.25 g/ha, read-out: Post-emergence effect at 1.25 g/ha against AMARE in %): 100%
- pest or weed control at 5 g/ha ([3]; Amaranthus retroflexus, 504 h, 5 g/ha, read-out: Post-emergence effect at 5 g/ha against AMARE in %): 100%
- pest or weed control at 20 g/ha ([3]; Amaranthus retroflexus, 504 h, 20 g/ha, read-out: Post-emergence effect at 20 g/ha against AMARE in %): 100%
- Post-emergence effect at 1.25 g/ha against DIGSA in % ([4]; 1.25 g/ha): 100%
- Post-emergence effect at 5 g/ha against DIGSA in % [4]: 100%
- Post-emergence effect at 20 g/ha against DIGSA in % [4]: 100%
- Post-emergence effect at 5 g/ha against ECHCG in % [5]: 90%
- pest or weed control at 20 g/ha ([5]; Echinochloa crus-galli, 504 h, 20 g/ha, read-out: Post-emergence effect at 20 g/ha against ECHCG in %): 100%
- ECHCG (efficacy in %) ([5]; Table B2 comparison, application rate 1.25 g/ha): 60%
- Post-emergence effect at 1.25 g/ha against PHBPU in % [6]: 80%
- pest or weed control at 5 g/ha ([6]; Ipomoea purpurea, 504 h, 5 g/ha, read-out: Post-emergence effect at 5 g/ha against PHBPU in %): 100%
- pest or weed control at 20 g/ha ([6]; Ipomoea purpurea, 504 h, 20 g/ha, read-out: Post-emergence effect at 20 g/ha against PHBPU in %): 100%
- pest or weed control at 5 g/ha ([7]; Fallopia convolvulus, 504 h, 5 g/ha, read-out: Post-emergence effect at 5 g/ha against POLCO in %): 80%
- pest or weed control at 20 g/ha ([7]; Fallopia convolvulus, 504 h, 20 g/ha, read-out: Post-emergence effect at 20 g/ha against POLCO in %): 100%
- Post-emergence effect at 1.25 g/ha against SETVI in % (Setaria viridis (SETVI)): 80%
- pest or weed control at 5 g/ha (Setaria viridis (SETVI); Setaria viridis, 504 h, 5 g/ha, read-out: Post-emergence effect at 5 g/ha against SETVI in %): 100%
- pest or weed control at 20 g/ha (Setaria viridis (SETVI); Setaria viridis, 504 h, 20 g/ha, read-out: Post-emergence effect at 20 g/ha against SETVI in %): 100%
- pest or weed control at 20 g/ha ([8]; Tripleurospermum inodorum, 504 h, read-out: Post-emergence effect at 20 g/ha against MATIN in %): 100%
- Post-emergence effect at 1.25 g/ha against VERPE in % (Veronica persica (VERPE)): 90%
- pest or weed control at 5 g/ha (Veronica persica (VERPE); Veronica persica, 504 h, 5 g/ha, read-out: Post-emergence effect at 5 g/ha against VERPE in %): 100%
- pest or weed control at 20 g/ha (Veronica persica (VERPE); Veronica persica, 504 h, 20 g/ha, read-out: Post-emergence effect at 20 g/ha against VERPE in %): 100%
- Post-emergence effect at 1.25 g/ha against VIOTR in % (Viola tricolor (VIOTR)): 100%
- Post-emergence effect at 5 g/ha against VIOTR in % (Viola tricolor (VIOTR)): 100%
- pest or weed control at 20 g/ha (Viola tricolor (VIOTR); Viola tricolor, 504 h, 20 g/ha, read-out: Post-emergence effect at 20 g/ha against VIOTR in %): 100%
- Post-emergence effect at 1.25 g/ha against ORYSA in % (Oryza sativa (ORYSA)): 0%
- Post-emergence effect at 5 g/ha against ORYSA in % (Oryza sativa (ORYSA)): 20%
- Post-emergence effect at 1.25 g/ha against TRZAS in % ([9]; Triticum aestivum, in vivo): 10%
- Post-emergence effect at 20 g/ha against TRZAS in % ([9]; Triticum aestivum, in vivo): 20%
- Post-emergence effect at 1.25 g/ha against ZEAMX in % (Zea mays (ZEAMX)): 10%
- Post-emergence effect at 5 g/ha against ZEAMX in % (Zea mays (ZEAMX)): 20%
- AVEFA (efficacy in %) (Avena fatura (AVEFA)): 70%
- herbicidal efficacy by comparison with a-27, a-29 or a generically encompassed structure (WO2002/098227) (harmful plants): distinctly improved herbicidal efficacy
- compatibility with crop plants by comparison with a-27, a-29 or a generically encompassed structure (WO2002/098227) (crop plants): distinctly improved compatibility

Compound: CC(OC(=O)COc1ccccc1Oc1cc(-n2c(=O)cc(C(F)(F)F)n(C)c2=O)c(F)cc1Cl)C1CCCC1 (stereo not shown) [I.7-13]
- Post-emergence effect at 1.25 g/ha against ABUTH in % [1]: 80%
- Post-emergence effect at 5 g/ha against ABUTH in % ([1]; 5 g/ha): 100%
- Post-emergence effect at 20 g/ha against ABUTH in % ([1]; 20 g/ha): 100%
- Post-emergence effect at 20 g/ha against ALOMY in % ([2]; 20 g/ha): 80%
- Post-emergence effect at 1.25 g/ha against AMARE in % ([3]; 1.25 g/ha): 100%
- Post-emergence effect at 5 g/ha against AMARE in % ([3]; 5 g/ha): 100%
- Post-emergence effect at 20 g/ha against AMARE in % ([3]; 20 g/ha): 100%
- Post-emergence effect at 5 g/ha against KCHSC in % (Bassia scoparia (KCHSC); 5 g/ha): 100%
- Post-emergence effect at 20 g/ha against KCHSC in % (Bassia scoparia (KCHSC); 20 g/ha): 100%
- Post-emergence effect at 5 g/ha against DIGSA in % [4]: 100%
- Post-emergence effect at 20 g/ha against DIGSA in % [4]: 100%
- Post-emergence effect at 1.25 g/ha against ECHCG in % ([5]; 1.25 g/ha): 80%
- Post-emergence effect at 5 g/ha against ECHCG in % [5]: 90%
- Post-emergence effect at 20 g/ha against ECHCG in % ([5]; 20 g/ha): 100%
- Post-emergence effect at 20 g/ha against LOLRI in % (Lolium rigidum (LOLRI)): 80%
- Post-emergence effect at 1.25 g/ha against PHBPU in % [6]: 100%
- Post-emergence effect at 5 g/ha against PHBPU in % ([6]; 5 g/ha): 100%
- Post-emergence effect at 20 g/ha against PHBPU in % ([6]; 20 g/ha): 100%
- Post-emergence effect at 5 g/ha against POLCO in % ([7]; 5 g/ha): 100%
- Post-emergence effect at 20 g/ha against POLCO in % ([7]; 20 g/ha): 100%
- Post-emergence effect at 1.25 g/ha against SETVI in % (Setaria viridis (SETVI)): 100%
- Post-emergence effect at 5 g/ha against SETVI in % (Setaria viridis (SETVI); 5 g/ha): 100%
- Post-emergence effect at 20 g/ha against SETVI in % (Setaria viridis (SETVI); 20 g/ha): 100%
- Post-emergence effect at 20 g/ha against MATIN in % [8]: 80%
- Post-emergence effect at 1.25 g/ha against VERPE in % (Veronica persica (VERPE)): 100%
- Post-emergence effect at 5 g/ha against VERPE in % (Veronica persica (VERPE); 5 g/ha): 100%
- Post-emergence effect at 20 g/ha against VERPE in % (Veronica persica (VERPE); 20 g/ha): 100%
- Post-emergence effect at 1.25 g/ha against VIOTR in % (Viola tricolor (VIOTR)): 90%
- Post-emergence effect at 5 g/ha against VIOTR in % (Viola tricolor (VIOTR)): 100%
- Post-emergence effect at 20 g/ha against VIOTR in % (Viola tricolor (VIOTR); 20 g/ha): 100%
- Post-emergence effect at 1.25 g/ha against GLXMA in % (Glycine max (GLXMA)): 20%
- Post-emergence effect at 1.25 g/ha against TRZAS in % ([9]; crop plant, post-emergence, 1.25 g/ha): 20%
